Data: the supplement of paper PMC10307832

Key:
Assay in all cases: relative viability (nuclei count vs DMSO), 5 days (fraction); higher = more cells survive
[1] = compound: O=S(=O)(c1ccccc1)N(CC(F)(F)F)c1ccc(C(O)(C(F)(F)F)C(F)(F)F)cc1
Summary of the method: (§1)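 Five library-drug doses, separated by factors of √10, were pinned into 1536-well plates holding lung cancer cell lines after an overnight stay at 37 °C. Cells were fixed, permeabilised and Hoechst-stained in one step after 5 days without medium change, then imaged at 4×. Viability compares treated-well with vehicle-well nuclei, counted in MetaXpress, as a median across plates. Passing plates had control CV below 25% and at least one doubling.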

[2] = compound: COc1cc2c(Oc3ccc(NC(=O)C4(C(=O)Nc5ccc(F)cc5)CC4)cc3F)ccnc2cc1OCCCN1CCOCC1 [Foretinib] (anchor plate); conditions: 0.25 µM
Summary of the method: as §1

[3] = compound: C1=CC2=C(C=CC(=C2)C=C3C(=O)NC(=NCC4=CC=CS4)S3)N=C1 [RO-3306]
Summary of the method: as §1

[4] = compound: C1=CC2=C(C=CC(=C2)C=C3C(=O)NC(=NCC4=CC=CS4)S3)N=C1 [RO-3306] + CC(C)C[C@H](NC(=O)[C@H](Cc1ccccc1)NC(=O)c1cnccn1)B(O)O [Bortezomib] (partner 0.002 µM)
Summary of the method: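 Relative viability equals treated-well nuclei counts divided by vehicle-well nuclei counts. Counts came from 4× images of lung cancer cell lines grown in 1536-well plates for 5 days after pin-tool dosing on the day after seeding. Dosing used one drug alone or a fixed anchor-drug dose plus five library-drug doses (not always all listed) in √10 steps, and values are medians of duplicate plates.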

Row | Cell Line | relative viability ([1]; 0.8 µM) | relative viability ([1]; 2.53 µM) | relative viability ([1]; 8 µM) | relative viability [2] | relative viability ([3]; 0.01 µM) | relative viability ([3]; 0.03162 µM) | relative viability ([3]; 0.1 µM) | relative viability ([3]; 0.3162 µM) | relative viability ([3]; 1 µM) | relative viability ([4]; first compound 0.01 µM) | relative viability ([4]; first compound 0.03162 µM) | relative viability ([4]; first compound 0.1 µM) | relative viability ([4]; first compound 0.3162 µM) | relative viability ([4]; first compound 1 µM)
1 | SK-MES-1 | 1.11 | 0.973 | 0.936 | 0.965 | 1.07 | 0.963 | 1.02 | 1.08 | 1.08 |  |  |  |  | 
2 | H3255 | 0.913 | 0.808 | 0.84 | 0.881 | 1.02 | 0.913 | 0.995 | 0.946 | 0.93 | 0.747 | 0.707 | 0.738 | 0.792 | 0.677
3 | NCI-H2087 | 1.11 | 0.993 | 0.909 | 1.06 | 1.11 | 0.918 | 1.1 | 1.04 | 0.991 | 0.726 | 0.843 | 0.729 | 0.947 | 0.738
4 | NCI-H1666 | 0.939 | 0.925 | 0.827 | 0.977 | 0.962 | 0.904 | 0.938 | 0.941 | 0.885 | 0.848 | 0.734 | 0.713 | 0.765 | 0.598
5 | SK-LU-1 | 1.16 | 1.08 | 0.992 | 0.785 | 1.08 | 0.924 | 1.07 | 1.01 | 0.995 | 0.767 | 0.932 | 1.08 | 1.34 | 0.853
6 | NCI-H727 | 1.08 | 0.702 | 0.898 | 0.892 | 0.892 | 0.704 | 1.01 | 1 | 1.2 | 0.878 | 0.733 | 0.84 | 0.817 | 0.948
7 | NCI-H1755 | 1.02 | 0.982 | 0.928 | 0.915 | 1.02 | 1 | 0.98 | 0.985 | 1.02 | 1.13 | 0.983 | 0.976 | 0.936 | 0.978
8 | NCI-H1650 | 0.929 | 0.897 | 0.936 | 1.22 | 0.885 | 0.729 | 0.795 | 0.881 | 0.728 | 0.204 | 0.184 | 0.181 | 0.192 | 0.185
9 | HARA | 0.933 | 0.803 | 0.962 | 0.959 | 0.96 | 0.909 | 0.886 | 0.985 | 1.03 | 1.15 | 0.74 | 1.11 | 1.11 | 0.991
10 | NCI-H1944 | 1.1 | 0.955 | 1.07 | 0.895 | 1.08 | 0.911 | 0.917 | 1.01 | 0.929 |  |  |  |  | 
